Experimental findings from patent publication US8592432B2, “Compounds and compositions as protein kinase inhibitors” (priority 2008, dated 2013) are described below.

In the test the target is ALK (Homo sapiens (Human), UniProt Q9UM73). The test is described as follows: ALK IC50 (Tables 1-4). Type of test: biochemical. The protocol:
Assays are incubated for 10 min at ambient temperature. […] Following washing (0.5% H3PO4), plates are counted in a liquid scintillation counter. IC50 values are calculated by linear regression analysis of the percentage inhibition.
Compounds of the present invention may be assessed for their ability to inhibit ALK using assays described below, as well as other assays known in the art.

A word on the IC50: it is the concentration that inhibits the measured activity by half.

ALK, sequence (Q9UM73 1116-1392): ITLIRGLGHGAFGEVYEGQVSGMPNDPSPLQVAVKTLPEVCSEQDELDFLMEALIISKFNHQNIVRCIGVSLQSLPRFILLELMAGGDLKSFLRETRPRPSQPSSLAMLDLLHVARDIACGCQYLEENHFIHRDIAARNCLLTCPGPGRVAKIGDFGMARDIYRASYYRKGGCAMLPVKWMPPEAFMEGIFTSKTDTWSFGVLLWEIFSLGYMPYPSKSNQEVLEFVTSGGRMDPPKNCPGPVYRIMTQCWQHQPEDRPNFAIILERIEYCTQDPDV

Consider `Cc1cc(Nc2nc(Nc3ccccc3S(=O)(=O)C(C)C)c3c(C)n[nH]c3n2)c(OC(C)C)cc1C1CCN(C)CC1` [Compound 34, N6-(2-isopropoxy-5-methyl-4-(1-methylpiperidin-4-yl)phenyl)-N4-(2-(isoproplsulfonyl)phenyl)-3-methyl-1H-pyrazolo[3,4-d]pyrimidine-4,6-diamine], for which half-maximal inhibition (IC50) was put at 20 nM.
